Data: patent US20250034194A1, “INHIBITORS OF ABNORMAL PHOSPHORYLATION AND TAU PROTEIN AGGREGATION” (UNIVERSITE DE PICARDIE JULES VERNE, priority 2021, published 2025)

How the values were obtained:
[1] = biological target: T1, tau protein (4R2N, 441 amino acids) (Homo sapiens, UniProt P10636); experiment: In vitro abnormal tau phosphorylation by GSK3β, competition with heparin (western blot); type: biochemical; conditions: for capacity to protect tau from its abnormal phosphorylation induced by heparin / ability to compete with heparin for abnormal tau phosphorylation by GSK3β: molecule 60 μg/mL vs heparin 12 μg/mL; for capacity to protect tau from its abnormal phosphorylation induced by heparin: AT270 antibody; for ability to compete with heparin for abnormal tau phosphorylation by GSK3β: 1.5 to 6 h of reaction, AT270, Ser199/202
T1 construct: purchased Millipore (tau); Promega (GSK3β)
T1 sequence (P10636 1-441 isoform P10636-8): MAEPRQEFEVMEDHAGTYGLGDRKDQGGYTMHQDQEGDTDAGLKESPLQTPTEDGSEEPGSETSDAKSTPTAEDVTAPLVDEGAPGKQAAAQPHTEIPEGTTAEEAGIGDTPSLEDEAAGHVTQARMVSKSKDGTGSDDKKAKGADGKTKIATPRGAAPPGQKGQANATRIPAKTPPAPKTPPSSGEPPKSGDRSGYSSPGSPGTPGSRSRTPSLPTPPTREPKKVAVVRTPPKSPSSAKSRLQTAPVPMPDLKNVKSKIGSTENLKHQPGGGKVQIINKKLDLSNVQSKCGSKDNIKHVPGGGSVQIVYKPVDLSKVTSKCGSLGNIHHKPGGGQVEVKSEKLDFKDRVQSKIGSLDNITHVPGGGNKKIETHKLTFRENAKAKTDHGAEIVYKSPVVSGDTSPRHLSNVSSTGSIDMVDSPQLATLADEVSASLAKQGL
Text: Phosphorylation of tau protein is the most common post-translational modification to regulate tau activity and functions. The longest tau isoform (4R2N, 441 amino acids) containing 85 potential phosphorylation sites was used. In vitro phosphorylation of the tau protein is done by induction, on the one hand, (FIG. 5) and, on the other hand, according to a competition process between the LG2A molecules and heparin, conventionally used to induce abnormal tau phosphorylation in vitro (FIGS. 3, 4, 6, 7, 8, 9 and 10).
For abnormal tau phosphorylation tests, GSK3p, a kinase centrally involved in this process in the brains of subjects with Alzheimer's disease (AD), was used. Analysis of tau phosphorylation by GSK3b at sites characteristic of AD is possible by the western blot technique using specific antibodies that recognize abnormally phosphorylated sites in the brain or cerebrospinal fluid of AD subjects, such as the AT270 antibody which recognizes threonine 181 (Thr181), the PHF1 antibody which recognizes serines 396 and 404 (Ser396/Ser404), and the AT8 antibody, which recognizes the Ser199/Ser202/Thr205 site.
By competition: The tau protein (40 μg/mL) is phosphorylated by the GSK3β enzyme at 4 ng/mL (Promega) in the presence of ATP (Sigma-Aldrich) at 48 μM and protease inhibitors (Sigma-Aldrich, 1/100), in the buffer mentioned above. The ability of the LG2A molecules (60 μg/mL) to compete with heparin (12 μg/mL; Sigma-Aldrich) is evaluated. Thus if the signal in the presence of the molecules is less than that obtained with heparin alone, the molecules are then defined as “protectors” from abnormal tau phosphorylation.
In both systems (induction or competition), the tau protein is incubated at 37° C. with stirring in the presence of the different elements presented above. The reaction kinetics are monitored by taking 8 μL of the samples at 1.5 h, 3 h and 6 h of incubation. Loading buffer (Euromedex) and β-mercaptoethanol (Sigma-Aldrich) are added to each sample. The samples are then stored at −20° C. until analysis by western blot.
After denaturation of the samples by heating at 95° C. for 5 minutes, the samples are deposited simultaneously with the molecular weight marker (Precision Plus Protein™ Dual Color Standards; BIO-RAD) on a 10% acrylamide gel placed in an electrophoresis tank containing migration buffer (0.25 M Tris; 1.6 M Glycine; […]; pH 8.6).
The controls used for this phosphorylation experiment followed by western blot are: • the “native tau” protein, that is to say the non-phosphorylated tau protein. • the tau protein phosphorylated by GSK3b alone in the absence of heparin. • the tau protein phosphorylated in the presence of heparin, denoted “tau+heparin”. • the “external standard” corresponding to the tau protein phosphorylated in the presence of heparin for 3 h. This standard is carried out in an experiment independently of the phosphorylation experiments in the presence of LG2A compounds. It ensures that the western blot is carried out correctly.
Then the membrane is incubated overnight with stirring at +4° C. in a solution of PBS, 0.1% Tween and 1% milk containing the primary antibody specific for tau phosphorylation sites (AT270, ThermoScientific or S199-202, Millipore).
After incubation of the PVDF membrane in the chosen primary antibody, a succession of 3 washes of 5 minutes of the membrane is carried out in PBS and 0.1% Tween with stirring and the membrane is incubated for 1 h with stirring at room temperature in a solution of 1×PBS, 0.1% Tween and 1% milk containing the diluted secondary antibody (Jackson Immuno-Research).

[2] = system: tau phosphorylation (S262 site) in SH-SY5Y cells; experiment: In cellulo tau phosphorylation test in the SH-SY5Y line (H2O2 stress induction); type: cell-based; conditions: 24 hours, then H2O2
Protocol: The tau phosphorylation induction model on the SH-SY5Y cell line described in the Gly-CRRET laboratory article was used here (Sepulveda-Diaz et al., 2015).
In short, SH-SY5Y cells are seeded in 6-well plates and differentiated using retinoic acid (10 μM, Sigma Aldrich) for 5 days. On day 6, the cells are placed in the presence of the Mal16diS and Mal18diS molecules at different concentrations (1, 10 or 100 μg/mL), in a final volume of 2 mL simultaneously with a well not receiving molecules. After 24 hours, the molecules are removed and the stress inducer (H2O2, Sigma Aldrich) is added to the cell medium for 30 minutes. The cells are then rinsed with 1×PBS then lysed and recovered in RIPA buffer (Thermo Fisher). The protein extracts from the cells (10 μg) are then analysed by western blot according to the same procedure described above.
The tau phosphorylation site studied here is the S262 site (Thermo Fisher), normalized to the expression of the GAPDH protein (Sigma Aldrich). The bands are quantified using the Odyssey software of the LI-COR device allowing the p-tau/GAPDH ratio to be calculated for each of the conditions. The ratio obtained for each concentration of molecule is then expressed as a percentage of the ratio obtained for the control cells, i.e., not treated by the molecules. Thus a value less than 100% corresponds to protection provided by the molecules in this cellular model of tau phosphorylation induction.
The experiment was repeated at least 4 times for each molecule dose for the “Mal16diS” and “Mal18diS” molecules and at least twice for the “Cell16diS” and “Lac16diS” molecules. The mean and standard deviation of the replicates are shown in FIGS. 13 to 16; each of the values obtained for each dose is compared to that of the control without addition of molecule by means of a t-test. Statistical differences with p-value <0.05 and <0.001 are represented by “*” and “***” respectively.

SH-SY5Y = experiment: Cytotoxicity study, MTT test; type: cell-based; conditions: differentiated SH-SY5Y; 0.1 to 100 μg/mL; 24 hours
Protocol: In order to evaluate the level of toxicity of these molecules according to their concentration in the cellular environment, an MTT test (3-(4,5-dimethylthiazol-2-yl)-2,5-diphenyl tetrazolium bromide) is carried out (FIGS. 11 and 12) upstream of the phosphorylation tests in cellulo.
SH-SY5Y (ATCC-CRL-2266) are developed in Dulbecco's Modified Eagle Complete Medium (DMEM-GlutaMAX™, Life Technologies) with 10% foetal bovine serum (FBS) and 1% penicillin/streptomycin in an incubator at 37° C. with 5% CO2.
For this, the SH-SY5Y cells are cultured in a 6-well plate at a cell density of 200,000 cells/well and are differentiated using retinoic acid (10 μM, Sigma Aldrich) for 5 days. On day 6, the cells are brought into contact with LG2A molecules at different concentrations (0.1, 1, 10 or 100 μg/mL), in a final volume of 2 mL. After 24 hours, MTT (5 μg/mL; Sigma-Aldrich) is added to the cell medium for 2 hours at 37° C. Then the medium is removed and 200 μL of pure dimethylsulfoxide (DMSO, Sigma-Aldrich) are added to each well. The entire contents of each well are transferred to a 96-well plate and the absorbance is measured at 562 nm using the Infinite M1000 spectrofluorometer (Tecan).

[3] = biological target: T1, tau protein (4R2N, 441 amino acids); conditions: GSK3β; FIG. 2, Sepulveda-Diaz et al, 2015; cited from earlier work

| Compound | capacity to protect tau from its abnormal phosphorylation induced by heparin [1] | ability to compete with heparin for abnormal tau phosphorylation by GSK3β [1] | other results |
| --- | --- | --- | --- |
| N-Hexadecyl-6 or 6′-O-Sulfo-D-Maltobioamide Sodium [Mal16monoS] | slight loss of the protective capacity | – | – |
| CCCCCCCCCCCCCCCCCCNC(=O)C(O)C(O)C(O)C(O)COC1OC(COS(=O)(=O)[O-])C(O)C(O)C1O.[Na+] (centres unmarked) [Mel18monoS, N-Octadecyl-6′-O-Sulfo-Melibioamide Sodium] | – | do not compete with heparin | – |
| CCCCCCCCCCCCCCCCNC(=O)[C@H](O)[C@@H](O)[C@H](O)[C@H](O)CO[C@H]1O[C@H](COS(=O)(=O)[O-])[C@H](O)[C@H](O)[C@H]1O.[Na+] [Mel16monoS, N-Hexadecyl-6′-O-Sulfo-Melibioamide Sodium] | – | do not compete with heparin | – |
| N-Octadecyl-D-Glucuronyl-(α-1,4)-D-Xyluronamide [Mal18diOx] | – | does not compete with heparin | – |
| N-Octadecyl-6,6′-Di-O-Sulfo-D-Cellobioamide Disodium [Cell18diS] | – | total competition with heparin | – |
| N-Octadecyl-6,6′-Di-O-Sulfo-Lactobioamide Disodium [Lac18diS] | – | total competition with heparin | – |
| N-Octadecyl-6 or 6′-O-Sulfo-D-Maltobioamide Sodium [Mal18monoS] | slight loss of the protective capacity | – | – |
| CCCCCCCCCCCCCCNC(=O)[C@H](O)[C@@H](O)[C@H](O)[C@H](O)CO[C@H]1O[C@H](COS(=O)(=O)[O-])[C@H](O)[C@H](O)[C@H]1O.[Na+] [Mel14monoS, N-Tetradecyl-6′-O-Sulfo-Melibioamide Sodium] | – | do not compete with heparin | – |
| N-Hexadecyl-Tri-O-Sulfo-D-Maltobioamide Trisodium [Mal16triS] | maintenance of this capacity to protect tau | – | – |
| N-Hexadecyl-6,6′-Di-O-Sulfo-D-Cellobioamide Disodium [Cell16diS] | – | total competition with heparin | reduction in tau phosphorylation (S262, p-tau/GAPDH) compared to untreated cells ([2]; 1 μg/mL): approximately 34%; reduction in tau phosphorylation (S262, p-tau/GAPDH) compared to untreated cells ([2]; 10 μg/mL): 17%; reduction in tau phosphorylation (S262, p-tau/GAPDH) compared to untreated cells ([2]; 100 μg/mL): 20% |
| N-Octadecyl-Tri-O-Sulfo-D-Maltobioamide Trisodium [Mal18triS] | maintenance of this capacity to protect tau | – | – |
| CCCCCCCCCCCCCCCCNC(=O)C(OS(=O)(=O)[O-])C(OS(=O)(=O)[O-])C(OC1OC(COS(=O)(=O)[O-])C(OS(=O)(=O)[O-])C(OS(=O)(=O)[O-])C1OS(=O)(=O)[O-])C(COS(=O)(=O)[O-])OS(=O)(=O)[O-].[Na+].[Na+].[Na+].[Na+].[Na+].[Na+].[Na+].[Na+] [Mal16perS, N-Hexadecyl-Per-O-Sulfo-D-Maltobioamide Sodium Salt] | retains its ability to protect tau | – | – |
| CCCCCCCCCCCCCCCCCCNC(=O)[C@H](O)[C@@H](O)[C@H](O[C@H]1OC(COS(=O)(=O)[O-])[C@@H](O)C(O)[C@@H]1O)[C@H](O)COS(=O)(=O)[O-].[Na+].[Na+] (stereo partly drawn) [Mal18diS, N-Octadecyl-6,6′-Di-O-Sulfo-D-Maltobionamide Disodium] | – | total competition with heparin | cytotoxicity (MTT) (SH-SY5Y): not cytotoxic; reduction in tau phosphorylation (S262, p-tau/GAPDH) compared to untreated cells ([2]; 1 μg/mL): ~30%; reduction in tau phosphorylation (S262, p-tau/GAPDH) compared to untreated cells ([2]; 10 μg/mL): ~30%; reduction in tau phosphorylation (S262, p-tau/GAPDH) compared to untreated cells ([2]; 100 μg/mL): up to 60%; abnormal phosphorylation of tau (p-tau) revealed by AT270 and Ser199/202 antibodies ([1]; in presence of heparin, after 3 h of reaction): inhibited |
| N-Hexadecyl-D-Glucuronyl-(α-1,4)-D-Xyluronamide [Mal16diOx] | less effective than disulphated maltobionamide compounds with the same chain length | – | – |
| N-Hexadecyl-6,6′-Di-O-Sulfo-Lactobioamide Disodium [Lac16diS] | – | total competition with heparin | reduction in tau phosphorylation (S262, p-tau/GAPDH) compared to untreated cells ([2]; 1 μg/mL): 25%; reduction in tau phosphorylation (S262, p-tau/GAPDH) compared to untreated cells ([2]; 100 μg/mL): 54% |
| heparin | – | – | phosphorylation of tau on sites characteristic of AD in the presence of heparin [3]: phosphorylation at all tau sites takes place |
